The values below come from the kinase profiling compilation of Christmann-Franck et al. (2016).

Usually residual activity stands for the signal under treatment as a percentage of the control signal.

Common to all, as to assay: radiometric filter-binding kinase assay
One assay has as its target TTK (human) (UniProt P33981).
In a further assay the target is PHKG1 (human) (UniProt Q16816). Particulars: compound 10.0 µM.
For another assay, the target named is RPS6KA3 KD1 KD2 (human) (UniProt P51812).
Chain of RPS6KA3 KD1 KD2 (human) (P51812 whole entry, looked up): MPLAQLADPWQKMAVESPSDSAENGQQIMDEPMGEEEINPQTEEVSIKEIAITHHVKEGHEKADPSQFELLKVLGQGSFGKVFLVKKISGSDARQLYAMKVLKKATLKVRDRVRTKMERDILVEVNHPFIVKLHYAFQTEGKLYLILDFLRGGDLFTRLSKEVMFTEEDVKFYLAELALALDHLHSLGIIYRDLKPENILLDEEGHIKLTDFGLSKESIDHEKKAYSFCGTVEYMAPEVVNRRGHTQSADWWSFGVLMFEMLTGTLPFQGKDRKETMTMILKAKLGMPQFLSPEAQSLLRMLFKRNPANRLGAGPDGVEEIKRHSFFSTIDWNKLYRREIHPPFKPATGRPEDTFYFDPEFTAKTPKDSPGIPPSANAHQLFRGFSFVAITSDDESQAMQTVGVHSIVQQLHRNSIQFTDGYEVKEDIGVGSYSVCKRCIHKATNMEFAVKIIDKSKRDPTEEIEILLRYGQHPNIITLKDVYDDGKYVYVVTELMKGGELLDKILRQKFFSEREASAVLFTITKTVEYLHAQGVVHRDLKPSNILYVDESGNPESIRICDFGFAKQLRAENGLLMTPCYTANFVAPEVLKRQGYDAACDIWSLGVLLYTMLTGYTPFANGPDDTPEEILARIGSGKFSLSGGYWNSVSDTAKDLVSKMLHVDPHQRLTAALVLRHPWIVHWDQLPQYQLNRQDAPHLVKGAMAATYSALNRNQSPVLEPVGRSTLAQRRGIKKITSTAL
The target of another assay is SYK (human) (UniProt P43405). Particulars: compound 10.0 µM.

Chain of TTK (human) (P33981 whole entry, looked up): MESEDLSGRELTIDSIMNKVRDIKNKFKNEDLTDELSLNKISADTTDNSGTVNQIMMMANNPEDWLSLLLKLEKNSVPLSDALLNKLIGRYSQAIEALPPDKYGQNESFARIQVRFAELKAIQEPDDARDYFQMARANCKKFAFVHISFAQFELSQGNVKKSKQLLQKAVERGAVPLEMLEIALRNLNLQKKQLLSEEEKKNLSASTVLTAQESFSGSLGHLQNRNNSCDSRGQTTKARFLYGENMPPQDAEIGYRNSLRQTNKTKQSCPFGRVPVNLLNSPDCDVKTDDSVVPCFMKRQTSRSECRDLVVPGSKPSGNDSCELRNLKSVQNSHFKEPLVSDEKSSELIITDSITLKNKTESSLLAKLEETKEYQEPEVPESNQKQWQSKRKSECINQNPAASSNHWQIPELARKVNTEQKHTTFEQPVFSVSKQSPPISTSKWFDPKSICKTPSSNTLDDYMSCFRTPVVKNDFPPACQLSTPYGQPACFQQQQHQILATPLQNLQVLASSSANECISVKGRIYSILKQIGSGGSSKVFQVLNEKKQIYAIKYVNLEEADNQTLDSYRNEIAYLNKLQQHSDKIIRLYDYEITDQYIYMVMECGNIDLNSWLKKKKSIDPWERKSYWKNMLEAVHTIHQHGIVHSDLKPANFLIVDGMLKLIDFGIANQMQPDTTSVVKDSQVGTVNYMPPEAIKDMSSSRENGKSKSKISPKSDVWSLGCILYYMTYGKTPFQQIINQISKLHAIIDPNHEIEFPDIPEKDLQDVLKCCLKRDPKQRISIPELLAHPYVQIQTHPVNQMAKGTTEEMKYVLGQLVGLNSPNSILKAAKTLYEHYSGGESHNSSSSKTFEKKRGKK
Chain of PHKG1 (human) (Q16816 whole entry, looked up): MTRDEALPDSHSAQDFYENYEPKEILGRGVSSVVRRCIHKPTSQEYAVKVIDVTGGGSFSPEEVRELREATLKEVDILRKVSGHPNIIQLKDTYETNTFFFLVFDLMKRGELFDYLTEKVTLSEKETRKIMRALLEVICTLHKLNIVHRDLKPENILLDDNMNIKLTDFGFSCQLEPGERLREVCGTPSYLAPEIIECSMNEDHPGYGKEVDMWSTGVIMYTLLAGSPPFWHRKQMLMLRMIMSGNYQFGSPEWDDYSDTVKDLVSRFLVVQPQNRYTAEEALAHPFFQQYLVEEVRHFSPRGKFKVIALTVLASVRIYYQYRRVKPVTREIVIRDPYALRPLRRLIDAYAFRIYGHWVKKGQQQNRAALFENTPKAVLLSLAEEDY

On to `O=C1c2ccccc2-c2n[nH]c3cccc1c23`, for which the residual activity came out at 74% at TTK (human) (compound 1.0 µM) and 57% at TTK (human) (compound 10.0 µM).
For `Cc1nc(N)sc1-c1csc(Nc2cccnc2)n1`, the residual activity at PHKG1 (human) turned out to be 54%; at RPS6KA3 KD1 KD2 (human) (compound 10.0 µM) it was 50%; at RPS6KA3 KD1 KD2 (human) (compound 100.0 µM) it was 10%; at SYK (human), 100%; on TTK (human) (compound 10.0 µM), 53%; at TTK (human) (compound 100.0 µM), 35%.
